Biological target: T1, soluble human BACE (Homo sapiens, UniProt P56817)
T1 construct: cells secreting human recombinant soluble BACE; made in house; concentrated conditioned medium, crude or purified
Assay: Inhibition of BACE: beta-secretase cleavage of synthetic biotinylated APP substrate, ELISA readout
Format: biochemical
Settings: 3 μM substrate, 0.05M sodium acetate (pH 4.5), 2% DMSO, 1 hour at 37° C., ELISA absorbance at 450 nm
Description: The substrate and test compounds are added to 384 well polypropylene plates. The reaction is initiated by the addition of soluble BACE enzyme to a final volume of 12.5 μL per well. […] Concentrated conditioned media from cells secreting human recombinant soluble BACE was titrated to provide a source of BACE enzyme. The cell media can be used as either a crude BACE prep or BACE can be purified using any number of techniques, including immobilized BACE inhibitor purification columns. The assay mixture is incubated for 1 hour at 37° C., and the reaction is quenched by the addition of an equal volume of 0.1M Tris, pH 8. Half of the quenched mix is incubated on clear streptavidin coated 384 well polystyrene plates for 1 hour. […] The readout, following assay development with TMB substrate and quenching with 0.09M sulfuric acid, is absorbance at 450 nm.

T1 sequence (P56817 46-457 limits assumed): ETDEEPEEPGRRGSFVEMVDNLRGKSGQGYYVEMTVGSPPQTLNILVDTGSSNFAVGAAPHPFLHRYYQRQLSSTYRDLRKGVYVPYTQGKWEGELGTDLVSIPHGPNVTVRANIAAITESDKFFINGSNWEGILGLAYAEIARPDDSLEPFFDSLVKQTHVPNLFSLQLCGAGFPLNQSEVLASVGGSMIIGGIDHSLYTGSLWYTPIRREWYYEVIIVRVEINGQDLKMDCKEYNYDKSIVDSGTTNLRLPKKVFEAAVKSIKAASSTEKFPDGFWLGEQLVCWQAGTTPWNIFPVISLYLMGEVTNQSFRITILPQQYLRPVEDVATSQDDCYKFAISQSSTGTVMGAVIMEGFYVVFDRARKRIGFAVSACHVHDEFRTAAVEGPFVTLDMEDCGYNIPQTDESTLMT

Row | IC50 [µM] | Structure (SMILES)
1 | 1.51 | Cc1ccncc1-c1cccc(CN2CC[C@]3(CNS(=O)(=O)N3c3cccc(F)c3)C[C@@H]2C)c1 [Example 17, (5R,7S)-1-(3-fluorophenyl)-7-methyl-8-[3-(4-methylpyridin-3-yl)benzyl]-2-thia-1,3,8-triazaspiro[4.5]decane 2,2-dioxide]
2 | 102 | CC(C)Oc1cccc(CN2CC[C@]3(CNS(=O)(=O)N3c3cccc(F)c3)C[C@@H]2C)n1 [Example 83, (5R,7S)-1-(3-fluorophenyl)-8-[(6-isopropoxypyridin-2-yl)methyl]-7-methyl-2-thia-1,3,8-triazaspiro[4.5]decane 2,2-dioxide]
